Source: US20250170098A1, “MOLECULAR JACKHAMMER FOR MECHANICAL DESTRUCTION OF CELLULAR STRUCTURE” (William Marsh Rice University, priority 2022, published 2025)

Columns and labels:
[1] = test system: A375 human melanoma tumors; assay: Treatment of A375 human melanoma tumors in nude mice; assay type: in vivo, mouse
Protocol: Preparation of fresh solution of 200 μM Cy7.5-amine and 2.5% DMSO for in vivo studies. In the day of treatment, fresh solution of 200 μM Cy7.5-amine was prepared by diluting in PBS buffer the 8 mM Cy7.5-amine stock in DMSO, the final dilution contained 2.5% DMSO. As control 2.5% DMSO in PBS buffer was used.
Injection of A375 cells subcutaneously in athymic nude mice to generate the human melanoma tumor model. The A375 cells were culture as described before. Cells were harvested from sub-confluent plates, ˜90%, and fresh media was added to the cells the day before harvesting. The cells were harvested using 0.05% trypsin-EDTA (Gibco, 25-300-054). The harvested cells were re-dispersed in DMEM media without supplements at 50×10^6 cells mL^−1. The cell suspension was kept in ice. Then 100 μL of cells were injected per mouse (this was 5 million of cells per mouse) subcutaneously in the right flank of 7-8 weeks old female athymic nude mouse. Starting at day 2 the tumors were measured using a caliper. The typical volume of the tumors at day 2 was ˜33 mm^3. The volume of the tumor was calculated as: (½)×length×width×height. When the height was not possible to measure in the case of the tumors that were too small (usually <100 mm^3), then the tumor volume was calculated as: (½)×length×width^2.
Treatment of A375 tumors with Cy7.5-amine and NIR 730 nm light. The tumors were treated at day 3 (since 5 million initial cells were injected per tumor site) when the average tumors size was 35 mm^3. Forty mice were divided in 4 groups (number of mice per group, n=10): 1) Cy7.5-amine only 2) 2.5% DMSO only, 3) 2.5% DMSO+Light and 3) Cy7.5-amine+light. The day of treatment, fresh solutions (200 μM of Cy7.5-amine in PBS and controls 2.5% DMSO in PBS) were prepared as described before. The mice were anesthetized with isoflurane using a vaporizer. Then, each mouse was injected with 50 μL of 200 μM Cy7.5-amine solution in PBS or 2.5% DMSO, intratumorally. Then mice were kept for 25 min in the cages to let the Cy7.5-amine solution or DMSO solution interact with the tumors. Then, after the 25 min of incubation, the mice were treated (under anesthesia, using isoflurane) with 730 nm LED light source from Prizmatix applying a power intensity of 150 mWcm^−2 for 5 min (other power intensities were 210 mWcm^−2 for 5 min and 300 mWcm^−2 for 5 min as described in the treatment schedule in FIG. 27F). The light intensity was measured using an Optical Power Meter from Thorlabs, sensor model S302C and console model PM100D. When the treatment was finished the mice were put back into the cages and housed in the animal facility. The tumors sizes were measured every other day using a caliper in the first 20 days of the study and then in the late stage of the study twice a week.

[2] = test system: human melanoma A375 cells; assay: Cell permeabilization to DAPI, flow cytometry analysis; assay type: cell-based
Protocol: The activity of plasmon-driven MJHs to open cell membranes by VDA upon NIR light-activation was evaluated in human melanoma A375 cells. When the cell membranes were open by VDA, DAPI enters immediately into the cells and stain the nucleus, and flow cytometry analysis was used to quantify the percentage of DAPI positive cells at variable concentrations of MJH. The flow cytometry analysis is conducted immediately after the cells were treated with 730 nm LED light at 80 mW/cm^2 for 10 min. Typically, it took ˜30 s to start cell counting and observe that DAPI already had entered into the cell membrane-compromised cells but not in the controls without VDA action. This is indicative of a rapid necrotic cell death and cell membrane permeabilization to DAPI by VDA action. The effective concentration needed to permeabilize cells by 50% (VDA IC50) was estimated for each molecule.
The flow cytometry data was analyzed using FlowJo software version 10.5.3. Then, a wide polygonal gate was drawn as shown in FIG. 33A since we were interested in detecting any cell death after treatment, we were not only interested in measuring healthy cell populations. Sometimes, we observed that the death cell population upon treatment shifted outside the gate if a narrow gate was used. Then, the singlets were selected and the DAPI fluorescence intensity was plotted versus the SSC-A and the gate for DAPI positive cells was drawn as shown in FIG. 33C and the analysis was applied to all samples in the group. In FIG. 33D, a DAPI positive population is observed in the same analysis group. This analysis was applied to calculate the percentage of DAPI positive cells.
Cell Permeabilization and flow cytometry analysis. A375 cells were cultured as described before. One day before the treatment, cells were inoculated at 5 million cells per dish (10 cm polystyrene tissue culture dish). The cells were harvested using 0.05% trypsin-EDTA (Gibco, 25-300-054), then the cells were counted and were adjusted to a cell density of 2×10^5 cells/mL in DMEM media with L-glutamine, 4.5 g/L glucose, and sodium pyruvate (Corning Inc. 10013CV) and supplemented with 10% FBS (Corning, 35010CV), 2×MEM vitamin solution (Gibco, 11120052), 1×MEM non-essential amino acid solution (Gibco, 11140050) and penicillin/streptomycin. 1 mL of this cell suspension containing 2×10^5 cells was used in each treatment. In a 1.5 mL Eppendorf tube, […] containing 2 mM Cy7.5-amine (or other cyanine molecule or other concentration) in DMSO (Fisher, 99.7%) was placed in the bottom of the tube, then 1 mL of the cell suspension was added into the tube to get final concentration of 2 μM of Cy7.5-amine containing 0.1% DMSO and 2×10^5 cells. The mixture was then incubated at 37° C. and 5% CO2 for 30 min. Then, 1 mM DAPI was added into the cell suspension. Then, the cells suspension was transferred to a […] tissue culture dish and immediately the cells were treated under the light beam of NIR light of 730 nm at 80 mW/cm^2 (or adjusted powers down to 20 mW/cm^2) for 10 min (or adjusted illumination times down to 30 s) using LED light source (PRIZMATIX, UHP-F-730, Israel) which covered the entire dish. While the cells were treated, the dish was placed on top of an aluminum block painted black, so that the excess NR light and that was not reflected back into the cell suspension while the aluminum block actED as a heat-sink, maintaining a constant temperature in the dish during the irradiation. The instrument for flow cytometry analysis (SONY, MA900 Multi-Application Cell Sorter) was already set up and calibrated by the time the light treatment was finished. Therefore, as soon as the 10-min light treatment was completed, the cell suspension was rapidly transferred from the 35 mm dish to a flow cytometry tube and the cells were analyzed for DAPI permeabilization and Cy7.5-amine binding. It took ˜30 s to load the sample and to start the analysis. […]

Structure (SMILES): CN1/C(=C\C=C2C=C(/C=C/C3=[N+](CCCCCC(=O)NCCCCCCN)c4ccc5ccccc5c4C3(C)C)CCC\2)C(C)(C)c2c1ccc1ccccc21 [Cy7.5-amine]
- mice tumor free ([1]; 8 μg intratumoral + light (300 mWcm^−2 of 730 nm LED for 5 min)): 50%
- survival rate of mice with A375 tumors ([1]; 8 μg intratumoral + light (300 mWcm^−2 of 730 nm LED for 5 min), day 120): 60%
- effect on size of A375 tumors ([1]; 150-215 mWCm^−2): mild therapeutic effect
- effect on size of A375 tumors ([1]; 300 mWCm^−2): strong effect on the regression of the tumor size
- survival of mice with A375 tumors ([1]; Cy7.5-amine group without light): 20%
- permeabilization to DAPI staining, percentage of cells ([2]; 1 μM, 730 nm LED at 80 mW/cm^2 for 10 min): 99.6%
- binding to cells upon addition of acetic acid ([2]; 2 μM, acetic acid 0 mM-10 mM): not able to bind efficiently to lipid membranes
